Consider three molecules from patent publication US20240317683A1, “METHODS OF TREATING MOOD DISORDERS” (priority 2020, published 2024).

One series concerns the target CYP2D6 (Homo sapiens (Human), UniProt P10635). Put plainly: CYP inhibition in human liver microsomes, CYP2D6. In kind it is in vitro ADME.
For series [1], the target named is serotonin transporter (SERT) (Homo sapiens (Human), UniProt P31645). As to the kind of experiment: SERT fluorescent substrate uptake inhibition in transfected HEK293 cells. Conditions: HEK293 cells expressing SERT. Format: cell-based. Here is the method:
SERT Uptake Inhibition. The ability of test compounds to block monoamine uptake by SERT was determined using the Neurotransmitter Transporter Uptake Assay Kit manufactured by Molecular Devices (Cat #R8173). Briefly, stably transfected HEK293 cells expressing SERT were grown and plated into 384-well plates at a concentration of 20,000 cells per well. Plates were then incubated for 16-20 h at 37° C. and 5% CO2. The medium was then aspirated and replaced with 25 μL of assay buffer (20 mM HEPES in HBSS, containing 0.1% BSA) containing the test compounds at the appropriate concentrations. Plates were then centrifuged at 300 rpm for 15 s and then incubated at 37° C. for 30 minutes. At this time, 25 μL of the proprietary fluorescent dye solution was added, the plates were incubated at 37°° C. for 60 minutes, and then fluorescence was quantified on a plate reader (excitation wavelength =440 nm, emission wavelength=520 nm). The proprietary dye solution contains a mixture of 1) a fluorescent dye (dye 1) that mimics the endogenous substrate of SERT and is thereby actively transported to the intracellular compartment in the absence of an inhibitor and 2) a masking dye that inhibits the fluorescence of dye 1 in the extracellular compartment. Therefore, the overall fluorescence of the system increases as the fluorescent dye is transported into the cells.

The next series addresses 5-HT1A (Homo sapiens (Human), UniProt P08908). As to the kind of experiment: FLIPR Ca2+ flux agonist assay, 5-HT1A. Format: cell-based. How it is done: A solution of 250 mM probenecid in 1 mL FLIPR assay buffer was prepared fresh. This was combined with a fluorescent dye (Fluo-4 Direct™) to make a final assay concentration of 2.5 mM. […] The fluorescent dye was then added to the assay plate along with assay buffer to a final volume of 40 μL. The cell plate was incubated for 50 min at 37° C. and 5% CO2 and placed into the FLIPR Tetra along with the compound plate. 10 μL of references and compounds were then transferred from the compound plate into the cell plate and the fluorescent signal was read.

Series [2] can be described thus: Metabolic stability in human liver microsomes (HLM). The conditions noted are these: both sexes, pooled human liver microsomes, pH 7.4, NADPH. In kind it is in vitro ADME. How it is done: HLM Stability. Pooled HLM from adult male and female donors (Corning 452117) were used. Microsomal incubations were carried out in multi-well plates. […] Control incubations were performed by replacing the NADPH-cofactor system with PBS. Test compounds (1 μM, final solvent concentration 1.0%) were incubated with microsomes at 37° C. with constant shaking. Six time points over 60 minutes were analyzed, with 60 μL aliquots of the reaction mixture being drawn at each time point.

Series [3] can be described thus: Metabolic stability in rat liver microsomes (RLM). In kind it is in vitro ADME. Conditions: both sexes, pooled rat liver microsomes, pH 7.4, NADPH. How it is done: RLM Stability. Pooled RLM from adult male and female donors (Xenotech R1000) were used. Microsomal incubations were carried out in multi-well plates. […] Control incubations were performed by replacing the NADPH-cofactor system with PBS. Test compounds (1 μM, final solvent concentration 1.0%) were incubated with microsomes at 37° C. with constant shaking. Six time points over 60 minutes were analyzed, with 60 μL aliquots of the reaction mixture being drawn at each time point.

Series [4] can be described thus: Metabolic stability in mouse liver microsomes (MLM). Format: in vitro ADME, CD-1 mice. Conditions: CD-1, mouse, pooled mouse liver microsomes, pH 7.4, NADPH. How it is done: MLM Stability. Pooled MLM from CD-1 mice (BIOIVT M00501) were used. Microsomal incubations were carried out in multi-well plates. […] Control incubations were performed by replacing the NADPH-cofactor system with PBS. Test compounds (1 μM, final solvent concentration 1.0%) were incubated with microsomes at 37° C. with constant shaking. Six time points over 60 minutes were analyzed, with 60 μL aliquots of the reaction mixture being drawn at each time point.

The nature of series [5]: Stability in rat brain homogenate. Conditions: for half-life at 1 μM: male, Sprague Dawley; for half-life at 1 μM / % Compound Remaining (after 120 min): rat brain homogenate, 37° C., 1 μM. In kind it is in vitro ADME, Sprague Dawley rats. How it is done:
Rat Brain Homogenate Stability. Frozen rat brain homogenate (pooled from male Sprague Dawley rats, BioreclamationIVT, RATOOBRAINMZA) was thawed in a water bath at 37° C. immediately prior to use. Positive controls and test compounds (final concentration in incubation medium=1 μM for test compounds and 2 μM for controls, all with 2% DMSO) were incubated in duplicate for each time point (0, 10, 30, 60, and 120 min) in the rat brain homogenate at a total reaction volume of 100 μL at 37° C. At the end of each incubation period, reactions were immediately quenched with 400 μL of acetonitrile containing internal standard (200 ng/ml tolbutamine and 200 ng/ml labetalol) and mixed thoroughly. Plates were then sealed, shaken for 20 min, and centrifuged at 4,000 rpm and 4° C. for 20 min. Aliquots of 50 μL of each supernatant were diluted into 100 uL of water and the mixtures were then shaken again for 10 min.

The target of the next series is CYP2C19 (Homo sapiens (Human), UniProt P33261). Put plainly: CYP inhibition in human liver microsomes, CYP2C19. In kind it is in vitro ADME. How it is done:
HLM Incubations. Pooled HLM from adult male and female donors (Corning 452117) were used. Microsomal incubations were carried out in multi-well plates. Liver microsomal incubation aliquots contained 1) PBS (100 mM, pH 7.4), MgCl2 (3.3 mM), and NADPH (1 mM); 2) liver microsomal protein (0.2 mg/mL); 3) the reference CYP substrates: phenacetin for CYP1A2 (10 μM), diclofenac for CYP2C9 (5 μM), (S)-mephenytoin for CYP2C19 (30 μM), dextromethorphan for CYP2D6 (5 μM), and midazolam for CYP3A4 (2 μM); and 4) test compounds (10 μM), control inhibitors (3 μM α-naphthoflavone for CYP1A2, 3 μM sulfaphenazole for CYP2C9, 1 μM (+)-N-3-benzylnirvanol for 2C19, 3 μM quinidine for CYP2D6, or 3 μM ketoconazole for CYP3A4), or solvent (for uninhibited condition). Incubations were carried out at 37° C. with constant shaking for 10 minutes.
Sample Analysis. […] Percent inhibition by test compounds or control inhibitors was calculated by comparing the metabolite formation in the presence of the inhibitor compared to the metabolite formation in the absence of the inhibitor.

Counter-ions that a name gives are not always drawn. Like-named read-outs stand apart in the source and are kept apart here.

Chain of CYP2D6 (P10635 whole entry, looked up): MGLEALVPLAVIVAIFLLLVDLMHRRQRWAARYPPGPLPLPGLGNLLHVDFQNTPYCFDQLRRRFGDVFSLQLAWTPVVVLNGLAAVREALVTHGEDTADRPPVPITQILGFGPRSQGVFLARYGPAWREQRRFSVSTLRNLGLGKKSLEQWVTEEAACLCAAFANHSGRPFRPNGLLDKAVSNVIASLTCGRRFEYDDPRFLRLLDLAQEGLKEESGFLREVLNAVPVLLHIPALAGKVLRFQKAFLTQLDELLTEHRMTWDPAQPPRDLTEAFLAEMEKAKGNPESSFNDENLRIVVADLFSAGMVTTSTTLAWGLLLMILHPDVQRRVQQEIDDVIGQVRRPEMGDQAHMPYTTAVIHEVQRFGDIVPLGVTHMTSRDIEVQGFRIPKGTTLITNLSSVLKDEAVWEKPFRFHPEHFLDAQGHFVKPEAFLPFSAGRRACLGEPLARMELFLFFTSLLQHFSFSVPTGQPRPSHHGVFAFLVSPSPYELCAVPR
Chain of CYP2C19 (P33261 whole entry, looked up): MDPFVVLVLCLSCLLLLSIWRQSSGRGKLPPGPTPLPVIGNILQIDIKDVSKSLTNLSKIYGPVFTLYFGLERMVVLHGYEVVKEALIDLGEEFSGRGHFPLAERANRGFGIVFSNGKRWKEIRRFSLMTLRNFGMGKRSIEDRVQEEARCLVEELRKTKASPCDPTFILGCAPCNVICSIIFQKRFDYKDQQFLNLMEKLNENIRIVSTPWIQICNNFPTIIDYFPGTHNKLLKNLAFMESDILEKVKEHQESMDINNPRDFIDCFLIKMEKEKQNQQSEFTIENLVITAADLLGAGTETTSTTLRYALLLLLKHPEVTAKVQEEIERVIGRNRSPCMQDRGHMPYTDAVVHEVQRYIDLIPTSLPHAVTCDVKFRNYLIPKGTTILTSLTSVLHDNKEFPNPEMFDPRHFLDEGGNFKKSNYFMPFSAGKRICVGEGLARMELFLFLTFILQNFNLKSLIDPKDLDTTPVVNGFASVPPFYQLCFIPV

As to `CCN(C)CCc1c[nH]c2cccc(O)c12` [Compound 6], the figures for the IC50 (against CYP2D6; in series [1]; against CYP2C19) were 48.5 µM, 3.27 µM and more than 50 µM, respectively. Also, in series [1], the “SERT % Inhibition @ Max Dose” value is 84.02%. The “5-HT1A % Act @ Max Dose” value on 5-HT1A (Ca2+ flux, CHO cells) amounted to 72.96%. Also, the EC50 on 5-HT1A (Ca2+ flux, CHO cells, read-out: 5-HT1A EC50) was determined as 14.7 µM. In addition, the half-life at 1 μM in series [2] was more than 145 min; in series [3], 50.1 min; in series [4] it was more than 145 min; in series [5] it was 53 min. Further, the microsomal CLint at 1 μM is less than 9.6 µL/min/mg in series [2], 27.7 µL/min/mg in series [3] and less than 9.6 µL/min/mg in series [4]. Besides, in series [5], the “stability in rat brain homogenate (in words)” value (“stability” for short) is on record as “intermediate stability”. The “% Compound Remaining (after 120 min)” value in series [5] was 20.9%.

With `CCN(C)CCc1c[nH]c2ccc(F)cc12` [Compound 4, N-ethyl-2-(5-fluoro-1H-indol-3-yl)-N-methylethan-1-amine hydrochloride], the values for the IC50 (against CYP2D6; in series [1]; on CYP2C19) were more than 50 µM, 0.419 µM and more than 50 µM, respectively. In addition, the “SERT % Inhibition @ Max Dose” value in series [1] was determined as 77.45%. This molecule gave an EC50 at 5-HT1A of 16.9 µM. Besides, at 5-HT1A (Ca2+ flux, CHO cells), the “5-HT1A % Act @ Max Dose” value was determined as 83.01%. The half-life at 1 μM is 47.9 min in series [2], 6.1 min in series [3], 47.6 min in series [4] and 183 min in series [5]. The microsomal CLint at 1 μM in series [2] is 28.9 µL/min/mg; in series [3], 229 µL/min/mg; in series [4] it was 29.1 µL/min/mg. Besides, the “stability” value in series [5] is given as “intermediate stability”. Further, the “% Compound Remaining (after 120 min)” value in series [5] is 62.0%.

Consider `CCN(C)CCc1c[nH]c2ccccc12` [Compound 2, methylethyltryptamine], for which the IC50 against CYP2D6 was 31.5 µM; in series [1], 9.13 µM; against CYP2C19, more than 50 µM. Besides, the inhibition at 10 min, 10 µM was determined as 11.5% at CYP2D6 (both sexes, human, pooled human liver microsomes, pH 7.4, probe dextromethorphan (5 μM), HLM, 10 μM, dextromethorphan substrate, read-out: CYP 2D6 % Inhibition at 10 μM) and 0% at CYP2C19 (both sexes, human, pooled human liver microsomes, pH 7.4, probe (S)-mephenytoin (30 μM), HLM, 10 μM, (S)-mephenytoin substrate, read-out: CYP 2C19 % Inhibition at 10 μM). Besides, in series [1], the “SERT % Inhibition @ Max Dose” value is on record as 62.06%. On 5-HT1A, the midpoint of the response, the EC50, lay at 59.5 µM. Besides, on 5-HT1A (Ca2+ flux, CHO cells), the “5-HT1A % Act @ Max Dose” value is 73.6%. Besides, the half-life at 1 μM in series [2] was 126 min; in series [3], 0.9 min; in series [4], 102 min; in series [5], more than 289 min. The figures for the microsomal CLint at 1 μM in series [2], in series [3] and in series [4] were 11.2 µL/min/mg, 1560 µL/min/mg and 13.6 µL/min/mg, respectively. Also, the “stability” value in series [5] is “high stability”. In addition, the “% Compound Remaining (after 120 min)” value in series [5] was 76.5%.
